Reference: patent US5039806A, “Novel pharmacologically active compound pyridyl methylsulfinyl benzimidazole” (AB Hassle, priority 1983, dated 1991)

Experiments:
[1] = tested on: isolated rabbit gastric glands; assay: Inhibiting effect in vitro on acid secretion in isolated rabbit gastric glands (14C-aminopyrine accumulation); assay type: cell-based; conditions: Oryctolagus cuniculus, 1 h, logarithm of concentration (in M) giving 50% inhibition of aminopyrine accumulation; 5×10^-5 M histamine, 60 min, free base
Description: I. Inhibiting effect in vitro on acid secretion in isolated rabbit gastric glands
Isolated rabbit gastric glands were prepared as described by Berglindh et al., Acta physiol. scand. 1976. 96. 150-159. This method involves vascular perfusion of the rabbit stomach via the gastric arteries, scraping and scissor mincing of the separated gastric mucosa and collagenase (0.1%, Type I, Sigma Chemicals, St. Louis, MO. USA) digestion at 37° C. for 60-90 min. The glands are then harvested and filtered through nylon cloth to remove coarse fragments. The glands are thereafter incubated at 37° C. in a medium containing NaCl 132.4 mM, KCl 5.4 mM, […], NaH2 PO4 1.0 mM, MgSO4 1.2 mM, CaCl2 1.0 mM, glucose 10 mM, and 1 mg/ml rabbit albumine, pH 7.4.
The acid secretion in the isolated gland preparation was recorded by measuring the uptake of ^14 C-labelled aminopyrine into the glands as described by Berglindh et al., Acta physiol. scand. 1976. 97. 401-414. Accumulation of aminopyrine in the glands indicates gastric acid secretion within the glands. The standard medium contained 10^-6 M ^14 C-aminopyrine (Amersham, Great Britain). After the incubation period, the glands were centrifuged, the supernatant was removed and the glands dried, weighed and dissolved in Soluene -350 (Packard, IU. USA). Samples of the supernatant and glands were separately counted in a scintillation counter. The accumulation of ^14 C-labelled aminopyrine in the glands was calculated as detailed by Berglindh et al., Acta physiol. scand. 1976. 97. 403.
Glands were incubated for 60 min. in the presence of 5×10^-5 M histamine and the test compound to be studied. The free base of the test compound was dissolved in methanol. The final concentration of methanol was 1% in the incubation medium, having no influence on the aminopyrine accumulation ratio.

[2] = tested on: gastric acid secretion in conscious dog; assay: Inhibiting effect in vivo on gastric acid secretion in conscious dog (gastric fistula, histamine-stimulated); conditions: intraduodenal (I.D.) dose 8 μmol/kg, free base in 0.5% Methocel
Description: II. Inhibiting effect in vivo on gastric acid secretion in conscious dog
Chronic gastric fistula dogs were used. These dogs have been surgically provided with a gastric cannula in the stomach and a duodenal fistula used for direct intraduodenal administration of test compounds. Following a 4 weeks' recovery period after surgery, tests were performed once a week on each dog. Food and water were withdrawn 18 hours before each test.
Gastric acid secretion was induced by continuous infusion of histamine at individual doses (100-300 nmol/kg,h), resulting in submaximal secretion of gastric acid. At least 2 hours after onset of stimulation, when the gastric acid secretion had reached a steady level, the test compounds in the form of free base suspended in 0.5% Methocel® (90 HG, 15.000, Dow Chem. Corp.), were given intraduodenally at doses from 1 to 8 μmol/kg. The gastric juice was collected by free flow from the gastric cannula in consecutive 30 minutes samples for 3 hours. The samples were titrated to pH 7.0 with 0.1 M NaOH using a Radiometer automatic titrator and the acid output was calculated.
The percent inhibition of acid secretion was calculated by comparing in each dog the acid output in the tests to the acid output in control tests when only the vehicle was given.

Row | SMILES | IC50 [1] | % INHIB (peak inhibitory effect on acid secretion) [2]
1 | COc1ccc2[nH]c([S+]([O-])Cc3cc4c(cn3)CCCC4)nc2c1 (centres unmarked) [Example 37] | 10 µM | 
2 | Cc1cnc(C[S+]([O-])c2nc3c(C)c(C)c(C)cc3[nH]2)c(C)c1 (centres unmarked) [Example 149] | 0.631 µM | 
3 | C=CCOc1c(C)cnc(C[S+]([O-])c2nc3cc(CCC(C)=O)ccc3[nH]2)c1C (centres unmarked) [Example 113] | 1.58 µM | 
4 | COc1c(C)cnc(C[S+]([O-])c2nc3c4c(ccc3[nH]2)CCCC4)c1C (centres unmarked) [Example 87] | 0.501 µM | 
5 | COc1ccc2[nH]c([S+]([O-])Cc3ncc(C)c(OCCC(C)C)c3C)nc2c1 (centres unmarked) [Example 96] | 0.794 µM | 
6 | C=CCOc1c(C)cnc(C[S+]([O-])c2nc3c(C)c(C)ccc3[nH]2)c1C (centres unmarked) [Example 22] | 1 µM | 
7 | CCC(=O)c1c(C)cc2[nH]c([S+]([O-])Cc3ncc(C)c(OC)c3C)nc2c1C (centres unmarked) [Example 66] | 1 µM | 
8 | COc1c(C)cnc(C[S+]([O-])c2nc3c(ccc4ccccc43)[nH]2)c1C (centres unmarked) [Example 83] | 5.01 µM | 
9 | COc1c(C)cnc(CSc2nc3cc4ccccc4cc3[nH]2)c1C [Example 84] |  | 85%
10 | Cc1cnc(C[S+]([O-])c2nc3cc(C(C)C)ccc3[nH]2)c(C)c1OCC1CCCO1 (centres unmarked) [Example 111] | 0.631 µM | 
11 | COCCc1ccc2[nH]c([S+]([O-])Cc3ncc(C)c(OC)c3C)nc2c1 (centres unmarked) [Example 104] | 2 µM | 
12 | C=CCOc1c(C)cnc(C[S+]([O-])c2nc3cc(Br)ccc3[nH]2)c1C (centres unmarked) [Example 129] | 1 µM | 
13 | COc1c(C)cnc(C[S+]([O-])c2nc3cc(C4CCCCC4)ccc3[nH]2)c1C (centres unmarked) [Example 45] | 0.794 µM | 
14 | COc1c(C)cc2[nH]c([S+]([O-])Cc3nccc(C)c3C)nc2c1C (centres unmarked) [Example 1, 4,6-dimethyl-5-methoxy-2-[[(3,4-dimethyl-2-pyridinyl)methyl]sulfinyl]-1H-benzimidazole] | 0.2 µM | 
15 | Cc1ccnc(C[S+]([O-])c2nc3c(C)c(C)c(C)cc3[nH]2)c1C (centres unmarked) [Example 145] | 0.631 µM | 
16 | Cc1cnc(C[S+]([O-])c2nc3cc4c(cc3[nH]2)OCO4)c(C)c1C (centres unmarked) [Example 142] | 1 µM | 
17 | CCCCCCCOc1c(C)cc2[nH]c([S+]([O-])Cc3ncc(C)c(OC)c3C)nc2c1C (centres unmarked) [Example 2, 4,6-dimethyl-5-heptyloxy-2-[[(4-methoxy-3,5-dimethyl-2-pyridinyl)methyl]sulfinyl]-1H-benzimidazole] | 1.26 µM | 
18 | CCc1c(C)cc2[nH]c([S+]([O-])Cc3ncc(C)c(OC)c3C)nc2c1C (centres unmarked) [Example 68] | 0.316 µM | 
19 | COc1c(C)cnc(C[S+]([O-])c2nc3c(C)c(C)c(C)cc3[nH]2)c1C (centres unmarked) [Example 16] | 0.316 µM | 
20 | COc1c(C)cnc(C[S+]([O-])c2nc3cc(OCC#N)ccc3[nH]2)c1C (centres unmarked) [Example 43] | 39.8 µM | 

Row | SMILES | IC50 [1] | % INHIB (peak inhibitory effect on acid secretion) [2]
21 | COc1c(C)cnc(C[S+]([O-])c2nc3cc(CO)c(C)cc3[nH]2)c1C (centres unmarked) [Example 51] | 0.794 µM | 
22 | CCc1cnc(C[S+]([O-])c2nc3cc(C(=O)OC)c(C)cc3[nH]2)cc1OC (centres unmarked) [Example 143] | 0.794 µM | 
23 | C#CCOc1c(C)cnc(C[S+]([O-])c2nc3cc(OC)ccc3[nH]2)c1C (centres unmarked) [Example 34] | 10 µM | 
24 | Cc1cnc(C[S+]([O-])c2nc3c(C)c(C)c(C)cc3[nH]2)cc1C (centres unmarked) [Example 147] | 0.398 µM | 
25 | COc1c(C)cnc(C[S+]([O-])c2nc3cc(OCCc4ccccc4)ccc3[nH]2)c1C (centres unmarked) [Example 120] | 0.501 µM | 
26 | COc1c(C)cnc(C[S+]([O-])c2nc3cc(Oc4ccccc4)ccc3[nH]2)c1C (centres unmarked) [Example 118] | 0.398 µM | 
27 | COc1c(C)cnc(C[S+]([O-])c2nc3c(C)c(OC)c(C)c(C)c3[nH]2)c1C (centres unmarked) [Example 74] | 0.631 µM | 
28 | COc1c(C)cnc(C[S+]([O-])c2nc3cc4c(cc3[nH]2)OC2(CCCCC2)O4)c1C (centres unmarked) [Example 106] | 1 µM | 
29 | COc1c(C)cnc(C[S+]([O-])c2nc3cc(C(=O)N4CCCCC4C)ccc3[nH]2)c1C (centres unmarked) [Example 79] | 10 µM | 
30 | C=CCOc1c(C)cnc(C[S+]([O-])c2nc3cc(OC)ccc3[nH]2)c1C (centres unmarked) [Example 32] | 2.51 µM | 
31 | C=CCOc1c(C)cnc(C[S+]([O-])c2nc3cc(C(=O)OC)c(C)cc3[nH]2)c1C (centres unmarked) [Example 55] | 5.01 µM | 
32 | C=CCOc1c(C)cnc(C[S+]([O-])c2nc3c(C)cccc3[nH]2)c1C (centres unmarked) [Example 28] | 1.26 µM | 
33 | C=CCOc1c(C)cnc(C[S+]([O-])c2nc3cc(C)ccc3[nH]2)c1C (centres unmarked) [Example 30] | 1.26 µM | 
34 | COCCOc1c(C)cc2[nH]c([S+]([O-])Cc3ncc(C)c(OC)c3C)nc2c1C (centres unmarked) [Example 58] | 1.26 µM | 
35 | C=CCOc1c(C)cnc(C[S+]([O-])c2nc3c(C)c(C)cc(C)c3[nH]2)c1C (centres unmarked) [Example 18] | 1.26 µM | 
36 | COCCOc1c(C)cc2[nH]c([S+]([O-])Cc3cc(C)c(C)cn3)nc2c1C (centres unmarked) [Example 60] | 3.98 µM | 
37 | Cc1ccnc(C[S+]([O-])c2nc3c(C)c(C)cc(C)c3[nH]2)c1C (centres unmarked) [Example 151] | 0.501 µM | 
38 | COc1c(C)cnc(C[S+]([O-])c2nc3c(C)c(C(C)=O)c(C)cc3[nH]2)c1C (centres unmarked) [Example 62] | 0.631 µM | 
39 | COc1c(C)cnc(C[S+]([O-])c2nc3c(C)c(C)cc(C)c3[nH]2)c1C (centres unmarked) [Example 20] | 1 µM | 
40 | Cc1cnc(C[S+]([O-])c2nc3cc(C(F)(F)F)ccc3[nH]2)c(C)c1OCC1CCCO1 (centres unmarked) [Example 159] | 0.501 µM | 

Row | SMILES | IC50 [1] | % INHIB (peak inhibitory effect on acid secretion) [2]
41 | COc1c(C)cnc(C[S+]([O-])c2nc3cc(OCCCOc4ccccc4)ccc3[nH]2)c1C (centres unmarked) [Example 91] | 1.58 µM | 
42 | C=CCOc1c(C)cnc(C[S+]([O-])c2nc3c(C)c(C)c(C)cc3[nH]2)c1C (centres unmarked) [Example 14] | 0.794 µM | 
43 | COc1c(C)cnc(C[S+]([O-])c2nc3c(cc4c5c(cccc53)CC4)[nH]2)c1C (centres unmarked) [Example 98] | 2.51 µM | 
44 | CCc1cnc(C[S+]([O-])c2nc3cc(C)c(C)cc3[nH]2)cc1OC (centres unmarked) [Example 77] | 1 µM | 
45 | C=CCOc1c(C)cnc(C[S+]([O-])c2nc3cc(CC)ccc3[nH]2)c1C (centres unmarked) [Example 94] | 0.251 µM | 
46 | CC(=O)c1c(C)cc2[nH]c([S+]([O-])Cc3ncc(C)cc3C)nc2c1C (centres unmarked) [Example 64] | 1.58 µM | 
47 | COc1c(C)cnc(CSc2nc3cc(SC)ccc3[nH]2)c1C [Example 109] |  | 60%
48 | C=CCOc1c(C)cnc(C[S+]([O-])c2nc3c(C)c(C)c(C)c(C)c3[nH]2)c1C (centres unmarked) [Example 10] | 0.794 µM | 
49 | CCc1c(C)cc2[nH]c([S+]([O-])Cc3nccc(OC)c3C)nc2c1C (centres unmarked) [Example 70] | 1.26 µM | 
50 | C=CCOc1c(C)cnc(C[S+]([O-])c2nc3cc(C(C)(C)C)ccc3[nH]2)c1C (centres unmarked) [Example 102] | 1.26 µM | 
51 | CCOc1c(C)cnc(C[S+]([O-])c2nc3c(C)c(C#N)c(C)cc3[nH]2)c1C (centres unmarked) [Example 153] | 6.31 µM | 
52 | COc1c(C)cnc(C[S+]([O-])c2nc3cc(-c4ccccc4)ccc3[nH]2)c1C (centres unmarked) [Example 124] | 0.1 µM | 
53 | C=CCOc1c(C)cnc(C[S+]([O-])c2nc3c(C)ccc(C)c3[nH]2)c1C (centres unmarked) [Example 26] | 1.26 µM | 
54 | C=CCOc1c(C)cnc(C[S+]([O-])c2nc3c(C)cc(C)cc3[nH]2)c1C (centres unmarked) [Example 41] | 1.26 µM | 
55 | CCc1cc2[nH]c([S+]([O-])Cc3ncc(C)c(OC)c3C)nc2c(CC)c1C#N (centres unmarked) [Example 72] | 10 µM | 
56 | COc1c(C)cnc(C[S+]([O-])c2nc3c(C)c(OC)c(C)cc3[nH]2)c1C (centres unmarked) [Example 8, 4,6-dimethyl-5-methoxy-2-[[(4-methoxy-3,5-dimethyl-2-pyridinyl)methyl]sulfinyl]-1H-benzimidazole] | 0.316 µM | 
57 | C=CCOc1c(C)cnc(C[S+]([O-])c2nc3cc(C)c(C)cc3[nH]2)c1C (centres unmarked) [Example 24] | 1 µM | 
58 | COc1c(C)cnc(C[S+]([O-])c2nc3c(C)c(C)c(C)c(C)c3[nH]2)c1C (centres unmarked) [Example 12] | 0.316 µM | 
59 | CCc1cnc(C[S+]([O-])c2nc3cc(OC)ccc3[nH]2)cc1OC (centres unmarked) [Example 35] | 2.51 µM | 
